# Measurements: ChEMBL document CHEMBL1649467, “Impact of human serum albumin on oritavancin in vitro activity against enterococci” (Antimicrob Agents Chemother, 2009)
# Experiments:
# [1] = test system: Enterococcus faecium; experiment: Antimicrobial activity against vancomycin-resistant Enterococcus faecium ATCC 51559 by broth dilution method; assay type: functional
# [2] = Cmax in healthy human male at 200 mg, iv every 24 hrs by LC/MS/MS analysis; assay type: ADME, organism-based; parameters: dose 200 mg, route intravenous; details: in vivo
# [3] = test system: Enterococcus faecium; experiment: Bactericidal activity against vancomycin-resistant Enterococcus faecium 1119175 expressing vanB gene assessed as change in bacterial count at 32 ug/ml by time-kill assay; assay type: functional
# [4] = test system: Enterococcus faecium; experiment: Antimicrobial activity against vancomycin-resistant Enterococcus faecium 1119175 by broth dilution method in presence of 4% HSA; assay type: functional
# [5] = test system: Enterococcus faecalis; experiment: Selectivity ratio of MIC for Enterococcus faecalis ATCC 29212 in presence of 4% HSA to MIC for Enterococcus faecalis ATCC 29212; assay type: functional
# [6] = test system: Enterococcus faecalis; experiment: Antimicrobial activity against vancomycin-resistant Enterococcus faecalis ATCC 51299 by broth dilution method in presence of 4% HSA; assay type: functional
# [7] = test system: Enterococcus faecalis; experiment: Bactericidal activity against vancomycin-susceptible Enterococcus faecalis ATCC 29212 assessed as change in bacterial count at 32 ug/ml by time-kill assay; assay type: functional
# [8] = Free fraction in healthy human male at 200 mg, iv every 24 hrs by LC/MS/MS analysis; assay type: ADME, organism-based; details: in vivo
# [9] = test system: Enterococcus faecalis; experiment: Selectivity ratio of MIC for Enterococcus faecalis ATCC 51299 in presence of 4% HSA to MIC for Enterococcus faecalis 51299; assay type: functional
# [10] = test system: Enterococcus faecalis; experiment: Bactericidal activity against vancomycin-resistant Enterococcus faecalis 1058946 expressing vanA gene assessed as change in bacterial count at 2 ug/ml by time-kill assay; assay type: functional
# [11] = test system: Enterococcus faecalis; experiment: Bactericidal activity against vancomycin-resistant Enterococcus faecalis ATCC 51299 expressing vanB gene assessed as change in bacterial count at 2 ug/ml by time-kill assay; assay type: functional
# [12] = test system: Enterococcus faecalis; experiment: Selectivity ratio of MIC for Enterococcus faecalis 1058946 in presence of 4% HSA to MIC for Enterococcus faecalis 1058946; assay type: functional
# [13] = test system: Enterococcus faecalis; experiment: Antimicrobial activity against vancomycin-susceptible Enterococcus faecalis ATCC 29212 by broth dilution method in presence of 4% HSA; assay type: functional
# [14] = test system: Enterococcus faecium; experiment: Antimicrobial activity against vancomycin-resistant Enterococcus faecium 1119175 by broth dilution method; assay type: functional
# [15] = test system: Enterococcus faecium; experiment: Bactericidal activity against vancomycin-resistant Enterococcus faecium ATCC 51559 expressing vanA gene assessed as change in bacterial count at 32 ug/ml by time-kill assay; assay type: functional
# [16] = test system: Enterococcus faecalis; experiment: Antimicrobial activity against vancomycin-resistant Enterococcus faecalis 1058946 by broth dilution method in presence of 4% HSA; assay type: functional
# [17] = test system: Enterococcus faecium; experiment: Antimicrobial activity against vancomycin-resistant Enterococcus faecium 1059060 by broth dilution method in presence of 4% HSA; assay type: functional
# [18] = test system: Enterococcus faecium; experiment: Bactericidal activity against vancomycin-resistant Enterococcus faecium 1119175 expressing vanB gene assessed as change in bacterial count at 2 ug/ml by time-kill assay; assay type: functional
# [19] = test system: Enterococcus faecalis; experiment: Bactericidal activity against vancomycin-resistant Enterococcus faecalis 1058946 expressing vanA gene assessed as change in bacterial count at 32 ug/ml by time-kill assay; assay type: functional
# [20] = test system: Enterococcus faecalis; experiment: Bactericidal activity against vancomycin-resistant Enterococcus faecalis ATCC 51299 expressing vanB gene assessed as change in bacterial count at 32 ug/ml by time-kill assay; assay type: functional
# [21] = test system: Enterococcus faecium; experiment: Antimicrobial activity against vancomycin-resistant Enterococcus faecium ATCC 51559 by broth dilution method in presence of 4% HAS; assay type: functional
# [22] = test system: Enterococcus faecium; experiment: Antimicrobial activity against vancomycin-resistant Enterococcus faecium 1059060 by broth dilution method; assay type: functional
# [23] = test system: Enterococcus faecalis; experiment: Antimicrobial activity against vancomycin-resistant Enterococcus faecalis 1058946 by broth dilution method; assay type: functional
# [24] = test system: Enterococcus faecium; experiment: Selectivity ratio of MIC for Enterococcus faecium 1059060 in presence of 4% HSA to MIC for Enterococcus faecium 1059060; assay type: functional
# [25] = test system: Enterococcus faecalis; experiment: Bactericidal activity against vancomycin-susceptible Enterococcus faecalis ATCC 29212 assessed as change in bacterial count at 2 ug/ml by time-kill assay; assay type: functional
# [26] = test system: Enterococcus faecium; experiment: Bactericidal activity against vancomycin-resistant Enterococcus faecium 1059060 expressing vanA gene assessed as change in bacterial count at 32 ug/ml by time-kill assay; assay type: functional
# [27] = test system: Enterococcus faecium; experiment: Bactericidal activity against vancomycin-resistant Enterococcus faecium ATCC 51559 expressing vanA gene assessed as change in bacterial count at 2 ug/ml by time-kill assay; assay type: functional
# [28] = test system: Enterococcus faecium; experiment: Bactericidal activity against vancomycin-resistant Enterococcus faecium 1059060 expressing vanA gene assessed as change in bacterial count at 2 ug/ml by time-kill assay; assay type: functional
# [29] = test system: Enterococcus faecalis; experiment: Antimicrobial activity against vancomycin-susceptible Enterococcus faecalis ATCC 29212 by broth dilution method; assay type: functional
# [30] = test system: Enterococcus faecium; experiment: Selectivity ratio of MIC for Enterococcus faecium ATCC 51559 in presence of 4% HSA to MIC for Enterococcus faecium ATCC 51559; assay type: functional
# [31] = test system: Enterococcus faecalis; experiment: Antimicrobial activity against vancomycin-resistant Enterococcus faecalis ATCC 51299 by broth dilution method; assay type: functional
# [32] = test system: Enterococcus faecalis; experiment: Bactericidal activity against vancomycin-susceptible Enterococcus faecalis ATCC 29212 assessed as change in bacterial count at 16 ug/ml by time-kill assay; assay type: functional
# [33] = test system: Enterococcus faecalis; experiment: Bactericidal activity against vancomycin-resistant Enterococcus faecalis ATCC 51299 expressing vanB gene assessed as change in bacterial count at 64 ug/ml by time-kill assay; assay type: functional
# [34] = Free fraction in healthy human male at 1000 mg, iv every 12 hrs by LC/MS/MS analysis; assay type: ADME, organism-based; details: in vivo
# [35] = test system: Enterococcus faecium; experiment: Bactericidal activity against vancomycin-resistant Enterococcus faecium ATCC 51559 expressing vanA gene assessed as change in bacterial count at 16 ug/ml by time-kill assay; assay type: functional
# [36] = test system: Enterococcus faecalis; experiment: Bactericidal activity against vancomycin-resistant Enterococcus faecalis 1058946 expressing vanA gene assessed as change in bacterial count at 64 ug/ml by time-kill assay; assay type: functional
# [37] = Cmax in healthy human male at 1000 mg, iv every 12 hrs by LC/MS/MS analysis; assay type: ADME, organism-based; parameters: dose 1000 mg, route intravenous; details: in vivo
# [38] = test system: Enterococcus faecium; experiment: Bactericidal activity against vancomycin-resistant Enterococcus faecium 1059060 expressing vanA gene assessed as change in bacterial count at 16 ug/ml by time-kill assay; assay type: functional
# [39] = test system: Enterococcus faecium; experiment: Bactericidal activity against vancomycin-resistant Enterococcus faecium 1059060 expressing vanA gene assessed as change in bacterial count at 64 ug/ml by time-kill assay; assay type: functional
# [40] = test system: Enterococcus faecium; experiment: Bactericidal activity against vancomycin-resistant Enterococcus faecium ATCC 51559 expressing vanA gene assessed as change in bacterial count at 64 ug/ml by time-kill assay; assay type: functional
# [41] = test system: Enterococcus faecalis; experiment: Bactericidal activity against vancomycin-resistant Enterococcus faecalis 1058946 expressing vanA gene assessed as change in bacterial count at 16 ug/ml by time-kill assay; assay type: functional
# [42] = test system: Enterococcus faecium; experiment: Bactericidal activity against vancomycin-resistant Enterococcus faecium 1119175 expressing vanB gene assessed as change in bacterial count at 16 ug/ml by time-kill assay; assay type: functional
# [43] = test system: Enterococcus faecalis; experiment: Bactericidal activity against vancomycin-resistant Enterococcus faecalis ATCC 51299 expressing vanB gene assessed as change in bacterial count at 16 ug/ml by time-kill assay; assay type: functional
# [44] = test system: Enterococcus faecalis; experiment: Bactericidal activity against vancomycin-susceptible Enterococcus faecalis ATCC 29212 assessed as change in bacterial count at 64 ug/ml by time-kill assay; assay type: functional
# [45] = test system: Enterococcus faecium; experiment: Bactericidal activity against vancomycin-resistant Enterococcus faecium 1119175 expressing vanB gene assessed as change in bacterial count at 64 ug/ml by time-kill assay; assay type: functional
structure (smiles),measurement,setting,value
CN[C@H](CC(C)C)C(=O)N[C@H]1C(=O)N[C@@H](CC(N)=O)C(=O)N[C@H]2C(=O)N[C@H]3C(=O)N[C@H](C(=O)N[C@H](C(=O)O)c4cc(O)cc(O)c4-c4cc3ccc4O)[C@H](O[C@H]3C[C@](C)(N)[C@@H](O)[C@H](C)O3)c3ccc(c(Cl)c3)Oc3cc2cc(c3O[C@@H]2O[C@H](CO)[C@@H](O)[C@H](O)[C@H]2O[C@H]2C[C@](C)(NCc3ccc(-c4ccc(Cl)cc4)cc3)[C@@H](O)[C@H](C)O2)Oc2ccc(cc2Cl)[C@H]1O [ORITAVANCIN],MIC,[1],0.25 µg/mL
same,Cmax,[2],32000 ng/mL
same,log10CFU/ml,[3],-1.4
same,MIC,[4],0.01 µg/mL
same,Ratio,[5],2
same,MIC,[6],0.06 µg/mL
same,log10CFU/ml,[7],-3.3
same,fraction unbound at 24 h,[8],0.12
same,Ratio,[9],8
same,log10CFU/ml,[10],1.4
same,log10CFU/ml,[11],-1.2
same,Ratio,[12],4
same,MIC,[13],0.016 µg/mL
same,MIC,[14],0.016 µg/mL
same,log10CFU/ml,[15],-1.2
same,MIC,[16],2 µg/mL
same,MIC,[17],4 µg/mL
same,log10CFU/ml,[18],1.5
same,log10CFU/ml,[19],-1.2
same,log10CFU/ml,[20],-1.6
same,MIC,[21],0.5 µg/mL
same,MIC,[22],0.5 µg/mL
same,MIC,[23],0.5 µg/mL
same,Ratio,[24],8
same,log10CFU/ml,[25],-0.48
same,log10CFU/ml,[26],-0.85
same,log10CFU/ml,[27],1.1
same,log10CFU/ml,[28],1
same,MIC,[29],0.008 µg/mL
same,Ratio,[30],2
same,MIC,[31],0.008 µg/mL
CN[C@H](CC(C)C)C(=O)N[C@H]1C(=O)N[C@@H](CC(N)=O)C(=O)N[C@H]2C(=O)N[C@H]3C(=O)N[C@H](C(=O)N[C@H](C(=O)O)c4cc(O)cc(O)c4-c4cc3ccc4O)[C@H](O)c3ccc(c(Cl)c3)Oc3cc2cc(c3O[C@@H]2O[C@H](CO)[C@@H](O)[C@H](O)[C@H]2O[C@H]2C[C@](C)(N)[C@H](O)[C@H](C)O2)Oc2ccc(cc2Cl)[C@H]1O [VANCOMYCIN],MIC,[1],> 128 µg/mL
same,MIC,[4],> 128 µg/mL
same,log10CFU/ml,[32],-1.7
same,log10CFU/ml,[33],0.85
same,fraction unbound at 12 h,[34],0.54
same,MIC,[6],128 µg/mL
same,log10CFU/ml,[35],2.6
same,log10CFU/ml,[36],2.3
same,Cmax,[37],64000 ng/mL
same,MIC,[13],2 µg/mL
same,MIC,[14],> 128 µg/mL
same,MIC,[16],> 128 µg/mL
same,MIC,[17],> 128 µg/mL
same,log10CFU/ml,[38],2.3
same,MIC,[21],> 128 µg/mL
same,MIC,[22],> 128 µg/mL
same,log10CFU/ml,[39],2.2
same,log10CFU/ml,[40],2.2
same,MIC,[23],> 128 µg/mL
same,log10CFU/ml,[41],2.5
same,log10CFU/ml,[42],1.1
same,log10CFU/ml,[43],2.3
same,MIC,[29],2 µg/mL
same,MIC,[31],128 µg/mL
same,log10CFU/ml,[44],-0.76
same,log10CFU/ml,[45],1.2
